# From patent publication US8058243B2, “Method for treating a brain cancer with ifenprodil” (HSC Research and Development Limited Partnership, priority 2006, dated 2011)
# Where a name gives a salt, the structure may show the parent alone. Read-outs that look alike come from different tables or passages of the source.
# Tested on: murine neural precursor cells (neurosphere cultures)
# Assay: HTS of LOPAC library against secondary neurosphere cultures, MTT proliferation assay at 3 μM, day 7 (z score, P value)
# Format: cell-based, mouse
# [1] = LOPAC library screen at 3 μM, MTT, secondary neurosphere cultures, screened in singlets
# [2] = LOPAC primary screen, neurosphere MTT proliferation, 3 μM, day 7
# [3] = yes/no: significantly inhibited neurosphere proliferation in primary screen
# [4] = LOPAC library screen at 3 μM, secondary neurosphere cultures, MTT
# [5] = yes/no: significantly inhibited neurosphere proliferation (P<0.01) in the primary screen
# [6] = LOPAC screen, neurosphere MTT proliferation, 3 μM, day 7
# [7] = yes/no: significantly inhibited neurosphere proliferation (P<0.01) in primary screen
# [8] = primary LOPAC screen, 3 μM, MTT, neurosphere proliferation
# [9] = yes/no: significantly inhibited neurosphere proliferation in the primary screen
# [10] = LOPAC library screen, 3 μM, MTT, neurosphere cultures
# [11] = LOPAC library screen, 3 μM, MTT, secondary neurosphere cultures, day 7
# [12] = yes = significantly inhibited neurosphere proliferation (P<0.01) in the primary screen
compound,measurement,setting,value
N.N.[Cl][Pt][Cl] [Cisplatin],Z Score,[1],1.523
same,Z score,[2],1.523
same,Activity,[3],no
COc1ccc2c(c1)c(CC(=O)O)c(C)n2C(=O)c1ccc(Cl)cc1 [Indomethacin],Z Score,[4],−0.3563
same,Z score,[2],−0.356
same,Activity,[5],no
NS(=O)(=O)c1cc2c(cc1Cl)NC(C1CC3C=CC1C3)NS2(=O)=O (centres unmarked) [Cyclothiazide],Z Score,[4],−0.907
same,Z score,[6],−0.907
same,Activity,[7],no
S(−)-Willardiine,Z Score,,1.251
same,Z score,[8],1.251
same,Activity,[9],no
Cc1cc(C)c(/C=C2\C(=O)Nc3ccccc32)[nH]1 [SU 5416],Z Score,,−0.6622
same,Z score,[2],−0.662
same,Activity,[3],no
Cl.NCCNC(=O)c1ncsc1-c1cccc(F)c1 [Ro 41-1049 hydrochloride],Z Score,,1.328
same,Z score,[2],1.328
same,Activity,[3],no
Vinblastine sulfate salt,Z Score,,−9.396
same,Z score,[2],−9.396
same,Activity,[5],yes
Cl.Cl.Cn1cnc(CCN)c1 [1-Methylbistamine dihydrochloride],Z Score,,0.3068
CC[C@H](NC(=O)c1c(C)c(-c2ccccc2)nc2ccccc12)c1ccccc1 [SB 222200],Z Score,,−1.695
same,Z score,[8],−1.695
same,Activity,[9],no
CCCCC1(C2CCCC2)Cc2cc(OCC(=O)O)c(Cl)c(Cl)c2C1=O (stereo in doubt) [R(+)-Butylindazone],Z Score,,0.02924
same,Z score,[6],0.029
same,Activity,[7],no
Nc1ncnc2c1ncn2C1CCCO1 (centres unmarked) [SQ 22536],Z Score,,0.5616
same,Z score,[8],0.562
same,Activity,[9],no
"N[C@H](C(=O)O)c1cc(O)cc(O)c1 [(S)-3,5-Dihydroxyphenylglycine]",Z Score,[4],−0.3364
NNC(=O)c1ccc(O)cc1 [4-Hydroxybenzhydrazide],Z Score,,−0.7888
same,Z score,[2],−0.789
same,Activity,[7],no
CC(CN(C)C)CN1c2ccccc2CCc2ccccc21 (centres unmarked) [Trimipramine maleate],Z Score,[10],0.5677
same,Z score,[8],0.568
same,Activity,[9],no
CCCCC1C(=O)N(c2ccccc2)N(c2ccccc2)C1=O [Phenylbutazone],Z Score,[10],0.7902
same,Z score,[2],0.790
CN1C(C)(C)CCCC1(C)C [Pempidine tartrate],Z Score,[11],−1.719
same,Z score,[2],−1.719
same,Activity,[12],no
CCCCCCCCCCCCCCCCCCNC(=O)OCC(COP(=O)([O-])OCC[n+]1ccsc1)OC (centres unmarked) [CV-3988],Z Score,,−0.4371
same,Z score,[2],−0.437
same,Activity,[3],no
CC(C)(C)c1o[nH]c(=O)c1CC(N)C(=O)O (centres unmarked) [ATPA],Activity,,no
same,Z Score,,0.2832
same,Z score,[8],0.283
COc1ccc(OC)c(C(O)C(C)N)c1 (centres unmarked) [Methoxamine hydrochloride],Z Score,[11],−3.255
same,Z score,[2],−3.255
same,Activity,[5],yes
C[C@@H](NC(=O)/C(C#N)=C/c1ccc(O)c(O)c1)c1ccccc1 [Tyrphostin AG 527],Z Score,[11],−1.607
same,Z score,[8],−1.607
same,Activity,[9],no
O=C1NCN(c2ccccc2)C12CCN(CCCC(c1ccc(F)cc1)c1ccc(F)cc1)CC2 [Fluspirilene],Activity,,no
same,Z Score,[1],1.589
same,Z score,[2],1.589
NNCCc1ccccc1 [Phenelzine sulfate],Z Score,[11],−1.536
same,Z score,[2],−1.536
same,Activity,[3],no
CCCCCCCC/C=C\CCCCCCCC(=O)O [Oleic Acid],Z Score,[4],−0.3449
CC1=C[C@@H]2c3cccc4[nH]cc(c34)C[C@H]2N(C)C1 [Agroclavine],Z Score,,−0.9109
same,Z score,[8],−0.911
same,Activity,[9],no
C[C@@]1(C2CCCC2)Cc2cc(OCC(=O)O)c(Cl)c(Cl)c2C1=O [R(+)-IAA-94],Z Score,,−0.01015
same,Z score,[2],−0.010
same,Activity,[7],no
CC1=C(CC(=O)O)c2cc(F)ccc2/C1=C\c1ccc([S+](C)[O-])cc1 (centres unmarked) [Sulindac],Activity,,no
same,Z Score,[4],−0.1942
same,Z score,[2],−0.194
CC(N)(Cc1ccc(O)c(O)c1)C(=O)O (racemic),Z Score,,−1.894
O=C(O)C1CCNCC1 [Isonipecotic acid],Z Score,"168 h, 3 µM",−0.4569
same,Z score,"168 h, 3 µM",−0.457
same,Activity,[7],no
Cl.N[C@@H](CCC(=O)O)C(=O)O [L-Glutamic acid hydrochloride],Z Score,,−0.4727
same,Z score,[2],−0.473
same,Activity,[7],no
N[C@H](CO)C(=O)O [D-Serine],Z Score,[4],−0.1429
same,Z score,[2],−0.143
same,Activity,[3],no
CN1CCc2ccccc2Cc2[nH]c3ccccc3c2CC1 [LE 300],Activity,,no
same,Z Score,,−1.07
same,Z score,,−1.070
N[C@@H](CS(=O)O)C(=O)O [L-Cysteinesulfinic Acid],Z Score,[10],1.458
same,Z score,[6],1.458
same,Activity,[7],no
CC[N+](CC)(CC)CCOc1cccc(OCC[N+](CC)(CC)CC)c1OCC[N+](CC)(CC)CC [Gallamine triethiodide],Z Score,[4],−0.9156
same,Z score,[2],−0.916
same,Activity,[7],no
Clc1ccc2c(c1)C(N1CCNCC1)=Nc1ccccc1O2 [Amoxapine],Z Score,"168 h, 3 µM",−1.041
same,Z score,"168 h, 3 µM",−1.041
same,Activity,[9],no
CP(=O)(O)CCCN.Cl [SKF 97541 hydrochloride],Z Score,,−0.7355
same,Z score,[8],−0.736
same,Activity,[9],no
"CC(N)c1cccc(Cl)c1Cl.Cl (racemic) [(±)-2,3-Dichloro-alpha-methylbenzylamine hydrochloride]",Z score,[6],−2.251
same,Activity,[7],no
O=C(NCC1CCCCN1)c1cc(OCC(F)(F)F)ccc1OCC(F)(F)F (centres unmarked) [Flecainide acetate],Z Score,[11],−1.498
Oc1ccc(Cn2ccnc2S)cc1 [1-(4-Hydroxybenzyl)imidazole-2-thiol],Z Score,"168 h, 3 µM",0.7628
same,Z score,"168 h, 3 µM",0.763
same,Activity,[7],no
Cc1ccccc1CNc1ncnc2c1ncn2[C@@H]1O[C@H](CO)[C@@H](O)[C@H]1O [Metrifudil],Z Score,[4],−0.2123
same,Z score,[2],−0.212
same,Activity,[12],no
L-Hyoscyamine,Activity,,no
same,Z Score,,−0.661
same,Z score,,−0.661
"CC(N)(Cc1ccc(O)c(O)c1)C(=O)O (racemic) [(±)-3-(3,4-dihydroxyphenyl)-2-methyl-DL-alanine]",Z score,"168 h, 3 µM",−1.894
same,Activity,[12],no
C[N+]1(C)[C@@H]2CC[C@H]1C[C@@H](OC(=O)C(CO)c1ccccc1)C2 (some centres unmarked) [Atropine methyl nitrate],Z Score,[10],1.292
same,Z score,[2],1.292
same,Activity,[3],no
N[C@@H](CCC(=O)N[C@@H](CSN=O)C(=O)NCC(=O)O)C(=O)O [S-Nitrosoglutathione],Z Score,"168 h, 3 µM",0.6978
same,Z score,"168 h, 3 µM",0.698
same,Activity,[12],no
CC[C@]1(O)C[C@H]2CN(CCc3c([nH]c4ccccc34)[C@@](C(=O)OC)(c3cc4c(cc3OC)N(C=O)[C@H]3[C@@](O)(C(=O)OC)[C@H](OC(C)=O)[C@]5(CC)C=CCN6CC[C@]43[C@@H]65)C2)C1 [Vincristine sulfate],Z Score,[11],−10.79
same,Z score,[2],−10.792
same,Activity,[5],yes
